{
  "source": "patent US20120213707A1",
  "about": "“Riboflavin Based Aerosol and Use as Placebo in Trials” (MPEX PHARMACEUTICALS, INC., priority 2009, published 2012)",
  "key": {"[1]": {"assay_type": "in vivo, rat (rattus norvegicus)", "protocol": "(§1) The objective of the study was to determine the toxicity and toxicokinetic profile of the test article, riboflavin 5′-phosphate, following inhalation (nose-only) administration to rats for 28 consecutive days.\n(§2) Treatment: Daily inhalation by nose-only exposure for 60 minutes. Duration of treatment: 28 Days.\n(§3) Assessments of mortality, clinical signs, body weights, food consumption, ophthalmology, functional observation battery and clinical chemistry, hematology, coagulation and urinalysis were performed. Plasma prepared from blood samples were collected from designated animals on the first and last days of the study and analyzed for Riboflavin 5′-phosphate content and toxicokinetic evaluation. All toxicology (main study) animals were euthanized upon completion of the 28-day treatment period and selected tissues were retained, weighed and examined microscopically. Toxicokinetic animals were euthanized following completion of blood sampling and were not subjected to necropsy examination or tissue collection. The following tables summarize tests, methods, and abbreviations used in hematology tests (Table 3), coagulation tests (Table 4), clinical chemistry tests (Table 5), and urinalysis (Table 6)."}, "Sprague-Dawley rats": {"tested_on": "Sprague-Dawley rats", "assay": "28-day aerosolized liquid inhalation (nose-only) toxicity study in Sprague-Dawley rats", "assay_type": "in vivo", "excerpt": "as §1\nTest Article: riboflavin 5′-phosphate sodium salt hydrate; alternate identity: vitamin B2 phosphate; description: yellow crystals; potency: 74%. Vehicle article: saline (0.9% (w/v) NaCl for injection); description: clear colorless solution. Test system: rat (rattus norvegicus); strain: Sprague-Dawley Crl:CD (SD).\nThe test (0.5 mg/mL, 2.0 mg/mL, 5.0 mg/mL) and/or vehicle control formulations (0 mg/mL) for each group were prepared fresh daily on each day by dissolving the test article in saline. All prepared test article formulations were protected from light and kept at room temperature (RT).\nas §2\nThe aerosol was produced by metering the flow of the test article or vehicle formulations to 3 clinical nebulizers (Sidestream) connected to high velocity airstreams (10 L/min to each nebuliser). The aerosol produced was discharged through a 40 mm diameter tube into a flow-past inhalation exposure system. The airflow rate through the exposure system was monitored and recorded manually during the aerosol generation. Airflow to the exposure system was controlled by the absolute volume of air supplying the aerosol generators using variable area flow meters.\nas §3"}, "[2]": {"assay": "Aerosol particle size distribution, dog oronasal exposure system (7-Stage Mercer Cascade Impactor)", "assay_type": "physicochemical", "excerpt": "The aerosol was produced by metering the flow of the test and control article formulations to 3 clinical nebulizers (Sidestream). The aerosol produced was discharged through a 40 mm diameter tube into a flow-past inhalation exposure system. The airflow rate through the exposure system was monitored and recorded manually during the aerosol generation. Airflow to the exposure system was controlled by the absolute volume of air supplying the aerosol generators using variable area flow meters. Control of the aerosol exhaust flow from the animal exposure system was achieved using an exhaust valve. The system provided a minimum of 6 L/min of aerosol to each animal exposure position and the inlet and outlet airflows were balanced to ensure that there was no dilution of the generated aerosol by air drawn from the environment. Any minor variations in flow were buffered by a balloon reservoir. An equal delivery of aerosol to each exposure position was achieved by employing a distribution network that was identical for each individual exposure position attached to the system.\nDeterminations of aerosol concentration, particle size distribution, oxygen concentration, relative humidity and temperature were performed on test atmosphere samples collected from a representative port of the exposure system, with a collection sample flow-rate of 1 L/min. The sample flow rates were precisely controlled using variable area flow meters that were calibrated before use using a primary airflow calibrator. The absolute volume of each aerosol concentration sample was measured using a wet type gas meter.\nThe distribution of particle size in the generated aerosols for Groups 2 to 4 were measured weekly during the treatment period by collecting samples into a 7-Stage Mercer Cascade Impactor and the particle size of aerosolized Riboflavin 5′-phosphate was determined using a validated analytical. The distribution of particle size in the generated aerosols for Group 1 were estimated once weekly by gravimetric determination. The MMAD and the Geometric Standard Deviation (GSD) were calculated based on the results obtained from the impactor using a log-probit transformation."}, "[3]": {"settings": "female, Sprague-Dawley, rat, in vivo, 0.96 mg/kg/day"}, "[4]": {"settings": "female, Sprague-Dawley, rat, in vivo, 2.4 mg/kg/day"}, "[5]": {"settings": "male, Sprague-Dawley, rat, in vivo, 2.4 mg/kg/day"}, "[6]": {"settings": "male, Sprague-Dawley, rat, in vivo, inhaled or intranasal, 0.96 mg/kg/day"}, "[7]": {"settings": "Group 2 Low Dose, 0.5 mg/mL formulation"}, "[8]": {"settings": "Group 3 Mid Dose, 2.0 mg/mL formulation"}, "[9]": {"settings": "Group 4 High Dose, 5.0 mg/mL formulation"}},
  "note": "Like-named read-outs stand apart in the source and are kept apart here.",
  "data": [
    {"smiles": "Cc1cc2nc3c(=O)[nH]c(=O)nc-3n(C[C@H](O)[C@H](O)[C@H](O)COP(=O)(O)O)c2cc1C", "note": "[riboflavin 5′-phosphate]", "values": [
      {"measurement": "Cmax ratio (M/F)", "setting": "[1]; both, Sprague-Dawley, rat, in vivo, 0.96 mg/kg/day", "value": 1.59},
      {"measurement": "AUC ratio (M/F)", "setting": "[1]; both, Sprague-Dawley, rat, in vivo, 2.4 mg/kg/day", "value": 1.24},
      {"measurement": "AUC ratio (M/F)", "setting": "[1]; [3]", "value": 1.25},
      {"measurement": "Cmax ratio (M/F)", "setting": "[1]; [3]", "value": 1.50},
      {"measurement": "AUC ratio (M/F)", "setting": "[1]; [4]", "value": 0.672},
      {"measurement": "Cmax ratio (M/F)", "setting": "[1]; [4]", "value": 1.17},
      {"measurement": "riboflavin concentration in plasma", "setting": "[1]; female, Sprague-Dawley, rat, in vivo, 24 h", "value": 0.829, "unit": "µg/mL"},
      {"measurement": "Tmax of riboflavin", "setting": "[1]; female, Sprague-Dawley, rat, in vivo, inhaled or intranasal, 0.96 mg/kg/day", "value": 0.00, "unit": "h"},
      {"measurement": "Tmax of riboflavin", "setting": "[1]; female, Sprague-Dawley, rat, in vivo, inhaled or intranasal, 2.4 mg/kg/day", "value": 0.00, "unit": "h"},
      {"measurement": "AUC ratio (M/F)", "setting": "[1]; [5]", "value": 0.433},
      {"measurement": "Cmax ratio (M/F)", "setting": "[1]; [5]", "value": 0.801},
      {"measurement": "AUC(0-T) of riboflavin", "setting": "[1]; [6]", "value": 15.9, "unit": "ng·h/mL"},
      {"measurement": "Tmax of riboflavin", "setting": "[1]; [6]", "value": 0.00, "unit": "h"},
      {"measurement": "Tmax of riboflavin", "setting": "[1]; male, Sprague-Dawley, rat, in vivo, inhaled or intranasal, 2.4 mg/kg/day", "value": 0.00, "unit": "h"},
      {"measurement": "gender difference in riboflavin exposure", "setting": "[1]; rat, in vivo", "value": "no gender difference in riboflavin exposure"},
      {"measurement": "riboflavin 5′-phosphate concentrations in plasma of treated animals", "setting": "[1]; rat, in vivo", "value": "detected in only very few treated animals"},
      {"measurement": "riboflavin concentration values, males versus females", "setting": "[1]; rats, Day 1", "value": "slightly higher in males than in females"},
      {"measurement": "No Observed Effect Level (NOEL)", "setting": "Sprague-Dawley rats; Sprague-Dawley rats, once daily inhaled, 28 consecutive days, high dose group", "value": 2.479, "unit": "mg/kg/day"},
      {"measurement": "clinical chemistry", "setting": "Sprague-Dawley rats; rat, in vivo", "value": "no changes noted in any clinical chemistry parameters that were considered to be treatment-related"},
      {"measurement": "coagulation times", "setting": "Sprague-Dawley rats; rat, in vivo", "value": "unaffected by treatment"},
      {"measurement": "functional observation battery", "setting": "Sprague-Dawley rats; rat, in vivo", "value": "no changes noted in any functional observation battery parameters that were considered to be treatment-related"},
      {"measurement": "hematology", "setting": "Sprague-Dawley rats; rat, in vivo", "value": "no changes noted in any haematology parameters that were considered to be treatment-related"},
      {"measurement": "macroscopic findings at necropsy", "setting": "Sprague-Dawley rats; rat, in vivo", "value": "no findings attributed to the test article administration"},
      {"measurement": "microscopic findings", "setting": "Sprague-Dawley rats; rat, in vivo", "value": "no microscopic findings that were considered to be test article related"},
      {"measurement": "urinalysis", "setting": "Sprague-Dawley rats; rat, in vivo", "value": "no changes in any of the urinalysis parameters evaluated that were considered affected by treatment"},
      {"measurement": "adverse effects", "setting": "Sprague-Dawley rats; rat, in vivo, 2.4 mg/kg/day", "value": "no adverse effects were observed"},
      {"measurement": "mortality", "setting": "Sprague-Dawley rats; rats, 0.244 mg/kg/day, considered accidental (restraint), not test article related", "value": "One male rat dosed at 0.244 mg/kg/day was found dead on Day 12"},
      {"measurement": "local or systemic toxicity (histology of lymphoid and respiratory tract tissues)", "setting": "Sprague-Dawley rats; rats, 28 days inhalation", "value": "no indications of local or systemic toxicity"},
      {"measurement": "tolerability", "setting": "Sprague-Dawley rats; rats, nose-only inhalation, 28 consecutive days", "value": "well tolerated"},
      {"measurement": "% of particles <3.1 μm", "setting": "[2]; [7]", "value": 91.1, "unit": "%"},
      {"measurement": "MMAD", "setting": "[2]; [7]", "value": 1.1, "unit": "μm"},
      {"measurement": "% of particles <3.1 μm", "setting": "[2]; [8]", "value": 93.3, "unit": "%"},
      {"measurement": "MMAD", "setting": "[2]; [8]", "value": 1.1, "unit": "μm"},
      {"measurement": "% of particles <3.1 μm", "setting": "[2]; [9]", "value": 87.2, "unit": "%"},
      {"measurement": "MMAD", "setting": "[2]; [9]", "value": 1.2, "unit": "μm"}
    ]}
  ]
}
